Series [1] has as its target Platelet-derived growth factor receptor alpha (Homo sapiens, UniProt P16234). Description: Inhibition of PDGFRalpha (unknown origin).
Series [2] addresses Ephrin type-A receptor 4 (Homo sapiens, UniProt P54764). Kind of series: Inhibition of EphA4 (unknown origin).
The nature of series [3]: Half life in mouse at 20 mg/kg, po administered as single dose. To be noted: in vivo. It counts as ADME, organism-based.
A short description of series [4]: Clearance in mouse at 20 mg/kg, po administered as single dose. It counts as ADME, organism-based. To be noted: in vivo.
The target in series [5] is T1, Serine/threonine-protein kinase B-raf (Homo sapiens, UniProt P15056, V600E). Description: Inhibition of recombinant C-terminal his6-tagged B-Raf (437 to 765 residues) V600E mutant (unknown origin) catalytic domain expressed in baculovirus infected Sf21 insect cells using biotinylated Mek substrate preincubated for 60 mins measured after 3 hrs by amplified luminescence proximity homogeneous assay.

The target of series [6] is MAP kinase p38 (Homo sapiens, UniProt O15264+Q15759+Q16539+P53778). Kind of series: Inhibition of P38 (unknown origin). It counts as protein assay.
Series [7] has as its target Vascular endothelial growth factor receptor 2 (Homo sapiens, UniProt P35968). Description: Inhibition of VEGFR2 (unknown origin).
A short description of series [8]: Oral bioavailability in mouse at 20 mg/kg administered as single dose. It is filed as ADME, organism-based. To be noted: in vivo.
The species entered for series [9] is Homo sapiens. Description: Selectivity ratio of IC50 for VEGFR2 (unknown origin) to IC50 for recombinant C-terminal his6-tagged B-Raf (437 to 765 residues) V600E mutant (unknown origin) expressed in baculovirus infected Sf21 insect cells.
The nature of series [10]: Solubility of the compound in PBS at pH 7. It counts as physicochemical.
For series [11], the species on record is Homo sapiens. Kind of series: Selectivity ratio of IC50 for P38 (unknown origin) to IC50 for recombinant C-terminal his6-tagged B-Raf (437 to 765 residues) V600E mutant (unknown origin) expressed in baculovirus infected Sf21 insect cells.
In series [12] the test system is Mus musculus. Description: Volume of distribution in mouse at 20 mg/kg, po administered as single dose. It counts as ADME, organism-based. To be noted: in vivo.
The target in series [13] is Mast/stem cell growth factor receptor Kit (Homo sapiens, UniProt P10721). Kind of series: Inhibition of Kit (unknown origin).
Series [14] addresses Tyrosine-protein kinase Lyn (Homo sapiens, UniProt P07948). Description: Inhibition of Lyn (unknown origin).
Series [15] concerns the target T2, Ephrin type-B receptor 4 (Homo sapiens, UniProt P54760).
T2 sequence (P54760 whole entry): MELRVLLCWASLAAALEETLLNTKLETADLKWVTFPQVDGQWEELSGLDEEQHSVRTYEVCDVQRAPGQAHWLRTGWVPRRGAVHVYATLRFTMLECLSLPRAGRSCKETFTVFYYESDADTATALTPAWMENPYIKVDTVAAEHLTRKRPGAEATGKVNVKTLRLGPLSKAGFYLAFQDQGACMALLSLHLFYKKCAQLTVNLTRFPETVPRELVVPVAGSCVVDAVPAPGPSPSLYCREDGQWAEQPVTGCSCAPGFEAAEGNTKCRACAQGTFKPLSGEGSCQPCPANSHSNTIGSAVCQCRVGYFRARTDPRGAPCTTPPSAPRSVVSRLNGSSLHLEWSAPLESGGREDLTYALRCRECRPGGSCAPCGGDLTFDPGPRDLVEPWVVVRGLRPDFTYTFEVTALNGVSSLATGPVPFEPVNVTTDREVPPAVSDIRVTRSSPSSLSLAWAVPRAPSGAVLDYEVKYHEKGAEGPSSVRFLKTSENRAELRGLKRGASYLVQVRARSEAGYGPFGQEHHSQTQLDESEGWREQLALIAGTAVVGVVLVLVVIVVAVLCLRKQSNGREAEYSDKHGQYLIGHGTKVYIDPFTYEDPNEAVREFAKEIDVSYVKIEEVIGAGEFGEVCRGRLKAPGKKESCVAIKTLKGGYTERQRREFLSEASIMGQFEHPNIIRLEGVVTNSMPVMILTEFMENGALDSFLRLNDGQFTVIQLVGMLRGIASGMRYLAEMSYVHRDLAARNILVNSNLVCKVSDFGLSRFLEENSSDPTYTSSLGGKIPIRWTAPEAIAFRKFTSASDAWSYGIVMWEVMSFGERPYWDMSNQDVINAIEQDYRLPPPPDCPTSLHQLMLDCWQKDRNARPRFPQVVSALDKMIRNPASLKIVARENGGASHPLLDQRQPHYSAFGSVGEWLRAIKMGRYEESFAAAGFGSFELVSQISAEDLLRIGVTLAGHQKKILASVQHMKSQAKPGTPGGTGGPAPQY
Kind of series: Inhibition of EphB4 (unknown origin).

The test system of series [16] is A-375. Description: Antiproliferative activity against human A375 cells. It is filed as functional, cell-based.
The target in series [17] is T1, Serine/threonine-protein kinase B-raf. Kind of series: Inhibition of B-Raf V600E mutant in human A375 cells assessed as reduction in ERK phosphorylation. It counts as cell-based.

≈ marks a conversion by molar mass, not a printed value.

T1 sequence (P15056 2-766 V600E limits assumed): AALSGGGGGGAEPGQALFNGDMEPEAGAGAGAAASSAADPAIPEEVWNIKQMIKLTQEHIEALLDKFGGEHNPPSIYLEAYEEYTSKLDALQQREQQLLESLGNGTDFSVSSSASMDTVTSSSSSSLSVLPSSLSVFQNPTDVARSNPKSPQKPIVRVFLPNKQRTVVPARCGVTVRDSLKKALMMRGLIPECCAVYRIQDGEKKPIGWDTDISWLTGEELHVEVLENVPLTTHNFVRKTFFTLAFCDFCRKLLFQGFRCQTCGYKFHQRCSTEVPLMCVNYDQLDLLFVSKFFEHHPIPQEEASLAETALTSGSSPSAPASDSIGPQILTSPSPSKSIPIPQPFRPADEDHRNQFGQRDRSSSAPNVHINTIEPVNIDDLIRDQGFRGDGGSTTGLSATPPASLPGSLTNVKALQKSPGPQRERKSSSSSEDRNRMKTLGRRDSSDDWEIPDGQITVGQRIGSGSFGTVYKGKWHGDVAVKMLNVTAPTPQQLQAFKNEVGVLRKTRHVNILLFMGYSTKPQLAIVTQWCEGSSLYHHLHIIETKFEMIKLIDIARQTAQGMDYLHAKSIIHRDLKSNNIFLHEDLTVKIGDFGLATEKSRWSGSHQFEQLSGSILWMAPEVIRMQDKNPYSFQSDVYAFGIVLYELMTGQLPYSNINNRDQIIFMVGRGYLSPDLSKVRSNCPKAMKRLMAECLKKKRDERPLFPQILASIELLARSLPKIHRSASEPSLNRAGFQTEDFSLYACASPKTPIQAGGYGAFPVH
Sequence of Vascular endothelial growth factor receptor 2 (P35968 whole entry): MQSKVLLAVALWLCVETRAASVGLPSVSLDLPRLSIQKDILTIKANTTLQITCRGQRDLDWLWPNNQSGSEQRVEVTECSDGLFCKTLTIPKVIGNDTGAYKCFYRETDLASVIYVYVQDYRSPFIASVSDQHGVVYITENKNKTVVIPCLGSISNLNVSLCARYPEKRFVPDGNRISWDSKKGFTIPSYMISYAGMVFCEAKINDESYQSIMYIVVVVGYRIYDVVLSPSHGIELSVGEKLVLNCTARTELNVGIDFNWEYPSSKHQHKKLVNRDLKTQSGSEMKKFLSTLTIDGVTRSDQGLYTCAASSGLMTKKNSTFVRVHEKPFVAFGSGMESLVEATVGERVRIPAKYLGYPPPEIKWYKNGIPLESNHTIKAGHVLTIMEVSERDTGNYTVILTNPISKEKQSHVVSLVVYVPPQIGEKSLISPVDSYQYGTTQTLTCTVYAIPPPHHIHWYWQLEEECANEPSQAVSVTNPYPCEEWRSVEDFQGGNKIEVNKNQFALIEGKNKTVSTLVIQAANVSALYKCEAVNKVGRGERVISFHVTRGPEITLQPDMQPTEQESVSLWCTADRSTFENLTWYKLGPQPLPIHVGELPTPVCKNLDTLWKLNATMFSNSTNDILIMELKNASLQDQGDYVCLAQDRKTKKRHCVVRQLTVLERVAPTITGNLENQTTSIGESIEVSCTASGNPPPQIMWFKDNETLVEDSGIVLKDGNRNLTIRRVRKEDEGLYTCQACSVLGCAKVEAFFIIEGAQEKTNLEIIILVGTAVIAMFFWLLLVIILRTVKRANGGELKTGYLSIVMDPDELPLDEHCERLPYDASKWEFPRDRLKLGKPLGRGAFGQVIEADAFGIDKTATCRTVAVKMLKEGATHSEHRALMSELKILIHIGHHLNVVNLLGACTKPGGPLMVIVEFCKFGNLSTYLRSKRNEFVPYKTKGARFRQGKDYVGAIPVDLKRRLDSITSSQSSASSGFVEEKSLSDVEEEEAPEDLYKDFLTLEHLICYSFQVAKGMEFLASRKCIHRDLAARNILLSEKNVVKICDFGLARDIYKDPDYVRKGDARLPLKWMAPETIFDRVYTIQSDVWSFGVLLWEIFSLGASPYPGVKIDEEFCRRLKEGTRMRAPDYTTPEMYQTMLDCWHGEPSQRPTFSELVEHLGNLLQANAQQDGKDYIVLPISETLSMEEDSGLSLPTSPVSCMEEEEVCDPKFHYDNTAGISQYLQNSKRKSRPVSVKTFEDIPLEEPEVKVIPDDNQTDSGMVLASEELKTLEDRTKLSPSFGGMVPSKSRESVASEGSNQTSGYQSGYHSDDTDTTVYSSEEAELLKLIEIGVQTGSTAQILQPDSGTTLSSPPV
Sequence of Tyrosine-protein kinase Lyn (P07948 whole entry): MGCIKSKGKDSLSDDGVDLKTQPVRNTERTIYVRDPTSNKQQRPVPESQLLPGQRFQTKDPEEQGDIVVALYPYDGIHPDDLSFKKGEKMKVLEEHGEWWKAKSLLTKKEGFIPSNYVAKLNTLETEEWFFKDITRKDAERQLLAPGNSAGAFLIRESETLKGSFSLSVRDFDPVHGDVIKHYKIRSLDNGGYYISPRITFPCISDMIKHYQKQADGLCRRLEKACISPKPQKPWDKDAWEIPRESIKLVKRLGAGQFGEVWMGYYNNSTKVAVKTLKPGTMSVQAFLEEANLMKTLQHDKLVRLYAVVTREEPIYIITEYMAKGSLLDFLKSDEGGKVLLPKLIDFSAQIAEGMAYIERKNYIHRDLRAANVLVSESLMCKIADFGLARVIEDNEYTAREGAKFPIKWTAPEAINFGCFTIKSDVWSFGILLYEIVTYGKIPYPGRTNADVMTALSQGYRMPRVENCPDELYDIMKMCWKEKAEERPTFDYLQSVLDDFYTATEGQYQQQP
Sequence of Ephrin type-A receptor 4 (P54764 whole entry): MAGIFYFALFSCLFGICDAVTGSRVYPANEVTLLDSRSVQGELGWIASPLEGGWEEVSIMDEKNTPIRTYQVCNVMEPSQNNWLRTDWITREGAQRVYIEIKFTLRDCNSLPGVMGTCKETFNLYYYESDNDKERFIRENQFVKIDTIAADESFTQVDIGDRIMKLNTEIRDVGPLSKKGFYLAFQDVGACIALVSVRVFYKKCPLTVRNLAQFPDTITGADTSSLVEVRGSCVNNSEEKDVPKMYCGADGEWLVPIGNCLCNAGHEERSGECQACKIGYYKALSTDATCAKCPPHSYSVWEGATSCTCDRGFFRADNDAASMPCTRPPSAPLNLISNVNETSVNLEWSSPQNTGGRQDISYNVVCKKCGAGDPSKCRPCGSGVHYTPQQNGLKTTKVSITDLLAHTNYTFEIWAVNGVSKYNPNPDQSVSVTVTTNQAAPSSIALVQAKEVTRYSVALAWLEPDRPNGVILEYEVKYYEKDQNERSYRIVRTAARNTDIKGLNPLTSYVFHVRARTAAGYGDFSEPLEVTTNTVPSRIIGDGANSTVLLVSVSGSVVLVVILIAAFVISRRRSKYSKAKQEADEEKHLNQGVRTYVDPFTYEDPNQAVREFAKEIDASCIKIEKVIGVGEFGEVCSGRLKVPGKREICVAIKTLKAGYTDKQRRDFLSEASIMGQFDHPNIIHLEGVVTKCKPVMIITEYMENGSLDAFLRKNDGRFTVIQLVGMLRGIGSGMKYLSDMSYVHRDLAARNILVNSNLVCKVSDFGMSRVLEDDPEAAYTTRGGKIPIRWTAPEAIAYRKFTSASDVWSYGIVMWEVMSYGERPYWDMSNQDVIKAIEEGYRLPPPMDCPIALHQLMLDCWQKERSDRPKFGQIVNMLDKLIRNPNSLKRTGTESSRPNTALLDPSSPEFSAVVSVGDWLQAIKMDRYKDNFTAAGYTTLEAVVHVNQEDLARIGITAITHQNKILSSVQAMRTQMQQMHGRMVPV
Sequence of Mast/stem cell growth factor receptor Kit (P10721 whole entry): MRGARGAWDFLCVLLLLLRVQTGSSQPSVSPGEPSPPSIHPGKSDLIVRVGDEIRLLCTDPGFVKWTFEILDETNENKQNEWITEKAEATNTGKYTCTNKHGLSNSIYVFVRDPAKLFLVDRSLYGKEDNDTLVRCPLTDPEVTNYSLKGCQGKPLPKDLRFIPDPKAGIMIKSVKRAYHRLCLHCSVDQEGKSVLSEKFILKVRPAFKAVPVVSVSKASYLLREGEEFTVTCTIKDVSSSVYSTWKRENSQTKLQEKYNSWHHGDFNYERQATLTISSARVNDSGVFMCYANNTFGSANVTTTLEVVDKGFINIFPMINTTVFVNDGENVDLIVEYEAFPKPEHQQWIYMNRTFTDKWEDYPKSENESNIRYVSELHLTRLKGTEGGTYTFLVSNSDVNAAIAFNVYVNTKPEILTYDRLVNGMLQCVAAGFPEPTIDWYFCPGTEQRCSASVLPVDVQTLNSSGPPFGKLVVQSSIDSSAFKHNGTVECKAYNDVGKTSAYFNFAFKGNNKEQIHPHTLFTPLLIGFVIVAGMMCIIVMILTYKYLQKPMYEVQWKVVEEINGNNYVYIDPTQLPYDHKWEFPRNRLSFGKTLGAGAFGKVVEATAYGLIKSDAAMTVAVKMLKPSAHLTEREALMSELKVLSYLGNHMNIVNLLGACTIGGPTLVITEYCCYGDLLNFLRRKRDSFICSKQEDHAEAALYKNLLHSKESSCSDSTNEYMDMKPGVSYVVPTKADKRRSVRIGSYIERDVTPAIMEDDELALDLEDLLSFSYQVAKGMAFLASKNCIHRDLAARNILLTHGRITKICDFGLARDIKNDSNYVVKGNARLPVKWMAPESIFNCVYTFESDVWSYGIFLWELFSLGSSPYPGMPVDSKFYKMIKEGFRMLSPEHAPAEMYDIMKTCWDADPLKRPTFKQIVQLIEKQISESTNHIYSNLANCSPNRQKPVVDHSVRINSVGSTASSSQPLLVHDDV

Take `CC(=O)Nc1cn2cc(-c3cc(NC(=O)c4cccc(C(F)(F)F)c4)ccc3C)ccc2n1`: the IC50 (in general, the concentration needed to halve the response being measured) in series [1] is 8 nM; in series [2], 74 nM; in [5], 0.2 nM; in series [6], 220 nM; in series [7], 320 to 670 nM; in series [13], 52 nM. In addition, the IC50 in series [14] was determined as 170 nM; in [15] it was 150 nM. In [3], the half-life – broadly, how long it takes for the measured level to halve – is 2.45 h. Also, the CL/F (usually the apparent clearance, not corrected for the fraction that reaches the circulation) in [4] worked out at 18 mL/min/kg. In addition, in [8], the bioavailability (in general, dose-corrected exposure relative to a reference, in per cent) is 73%. Further, the Ratio IC50 in [9] came out at 1600; in series [11], 1100. In addition, the solubility (as a rule, how much of the substance goes into solution per volume) in [10] was below 0.4 µM. The molecule also yielded a Vd in series [12] of 2.15 L/kg. The EC50 (in general, the concentration at which the effect is half-maximal) in [16] worked out at 86 nM; in series [17] it was 230 nM.

`CC(=O)Nc1cn2cc(-c3cc(NC(=O)c4cccc(C(F)(F)F)n4)ccc3C)ccc2n1`: the IC50 in series [5] is 6 nM; in [6] it was above 25000 nM. In [11], the Ratio IC50 is above 4000. Besides, the EC50 in series [16] is 130 nM; in [17], above 10000 nM.

Turning to `CC(=O)Nc1cn2cc(-c3cc(NC(=O)c4cc(C(F)(F)F)ccn4)ccc3C)ccc2n1`, the values for the IC50 in [5], in series [6] and in series [7] were 0.9 nM, 660 nM and 2000 nM, respectively. In addition, the Ratio IC50 in [9] was 2000; in series [11], 700. For the same molecule, the EC50 in [16] stood at 280 nM; in [17] it was 770 nM.

As for `CC(=O)Nc1cn2cc(-c3cc(NC(=O)c4cc(N5CCN(C)C[C@@H]5C)cc(C(F)(F)F)c4)ccc3C)ccc2n1`, the IC50 is 3 nM in [5] and 2 nM in series [6]. The solubility in series [10] worked out at 122 µM (≈ 68.9 µg/mL). Besides, the Ratio IC50 in [11] worked out at 0.7. Besides, the EC50 in [16] came to 340 nM; in series [17], 240 nM.

Take `CC(=O)Nc1cn2cc(-c3cc(NC(=O)c4ccccc4)ccc3C)ccc2n1`: the half-inhibitory concentration (IC50) was 61 nM in [5], 1600 nM in series [6] and 11000 nM in series [7]. The Ratio IC50 in series [9] is 18; in series [11] it was 3 to 20. Moreover, the values for the EC50 in series [16] and in [17] were 100 nM and 540 nM, respectively.

For `CC(=O)Nc1cn2cc(-c3cc(NC(=O)c4cccc(C(C)(C)C)c4)ccc3C)ccc2n1`, the IC50 was 0.3 nM in series [5], 2 nM in series [6] and 44 nM in [7]. The Ratio IC50 turned out to be 146 in [9] and 7 in [11]. The EC50 in series [16] turned out to be 57 nM; in series [17] it was 25 nM.

For `CC(=O)Nc1cn2cc(-c3cc(NC(=O)c4cccc(Cl)c4)ccc3C)ccc2n1`, the values for the IC50 in [5], in series [6] and in [7] were 0.3 nM, 3100 nM and 2700 nM, respectively. Besides, the results for the Ratio IC50 in series [9] and in series [11] were 9000 and 10000, respectively. Further, the half-maximal effective concentration (EC50) in [16] came to 70 nM; in series [17], 480 nM.

Turning to `CC(=O)Nc1cn2cc(-c3cc(NC(=O)c4ccc(CN5CCN(C)CC5)c(C(F)(F)F)c4)ccc3C)ccc2n1`, the IC50 in series [5] is 5 nM; in series [6], below 11 nM; in series [7], 110 nM. For the same molecule, the values for the Ratio IC50 in [9] and in series [11] were 20 and below 2, respectively. In [10], this molecule returned a solubility of 4.6 µM (≈ 2.6 µg/mL). Moreover, the EC50 in series [16] was 430 nM; in series [17], 130 nM.

The values above are taken from ChEMBL document CHEMBL4177673, “Imidazo[1,2-a]pyridin-6-yl-benzamide analogs as potent RAF inhibitors” (Bioorg Med Chem Lett, 2017).
